From patent US20100255580A1, “Differentiation of Human Embryonic Stem Cells” (LIFESCCAN, INC., priority 2007, published 2010)
Where two headings read alike, the source gives them in different places.

Tested on: H9 embryonic stem cells
Type: cell-based, human
Conditions: DE treatment in low serum
Description: Controls for each group included cells plated on […]-coated dishes and cultured in MEF-conditioned medium or cells plated on MEFs and cultured in ES medium. All groups contained three biological replicates and each biological replicate was repeated on two separate gene chips.
Sample preparation, hybridization, and image analysis were performed according to the Affymetrix Human Genome U133 Plus 2.0 Array. Following normalization and a log transformation, data analysis was performed using OmniViz® software (MA) and […] (VizXLabs, WA). Significant differences in gene expression between the samples were evaluated using analysis of variance and an F-test with adjusted P-value (Benjamini and
Hochberg correction) of ≦b 0.05. Only genes with a present call in at least one group were included in the analysis.

Activin A: a member of the TGFβ superfamily; R&D Systems; Group 2 = Activin A (100 ng/ml)
mean normalized intensity (log format), gene: DKFZP566K1924 protein (on MATRIGEL): 2.882 | mean normalized intensity (log format), gene: ESTs (r2006) (on MATRIGEL): 1.5857 | mean normalized intensity (log format), gene: ESTs (r2025) (on MATRIGEL): 1.531 | mean normalized intensity (log format), gene: ESTs (r2032) (on MATRIGEL): 0.1336 | mean normalized intensity (log format), gene: ESTs (r2038) (on MATRIGEL): 3.262 | mean normalized intensity (log format), gene: ESTs (r2134) (on MATRIGEL): −1.3795 | mean normalized intensity (log format), gene: ESTs (r2148) (on MATRIGEL): 4.454 | mean normalized intensity (log format), gene: ESTs, Moderately similar to ALU2_HUMAN ALU SUBFAMILY SB SEQUENCE CONTAMINATION WARNING ENTRY (H. sapiens) (on MATRIGEL): 4.241 | mean normalized intensity (log format), gene: H. sapiens mRNA for B-HLH DNA binding protein. (on MATRIGEL): 5.43 | mean normalized intensity (log format), gene: Homo sapiens BCL2-interacting killer (apoptosis-inducing) (BIK), mRNA. (on MATRIGEL): 4.3 | mean normalized intensity (log format), gene: Homo sapiens Charot-Leyden crystal protein (CLC), mRNA. (on MATRIGEL): 3.301 | mean normalized intensity (log format), gene: Homo sapiens HES-related repressor protein 1 HERP1 mRNA, complete cds. (on MATRIGEL): 2.806 | mean normalized intensity (log format), gene: Homo sapiens HSPC156 protein (HSPC156), mRNA. (on MATRIGEL): 0.7862 | mean normalized intensity (log format), gene: Homo sapiens KIAA0469 gene product (KIAA0469), mRNA. (on MATRIGEL): 4.031 | mean normalized intensity (log format), gene: Homo sapiens PNAS-123 mRNA, complete cds (on MATRIGEL): 1.597 | mean normalized intensity (log format), gene: Homo sapiens Wilms tumor 1 (WT1), transcript variant D, mRNA. (on MATRIGEL): 2.405 | mean normalized intensity (log format), gene: Homo sapiens cDNA FLJ11398 fis, clone HEMBA1000637. (on MATRIGEL): 2.5268 | mean normalized intensity (log format), gene: Homo sapiens cDNA: FLJ22547 fis, clone HSI00356 (on MATRIGEL): 4.294 | mean normalized intensity (log format), gene: Homo sapiens cadherin 6, type 2, K-cadherin (fetal kidney) (CDH6), mRNA. (on MATRIGEL): 0.8248 | mean normalized intensity (log format), gene: Homo sapiens chorionic somatomammotropin hormone 2 (CSH2), transcript variant 1, mRNA. (on MATRIGEL): 1.124 | mean normalized intensity (log format), gene: Homo sapiens chorionic somatomammotropin hormone 2 (CSH2), transcript variant 4, mRNA. (on MATRIGEL): 0.8122 | mean normalized intensity (log format), gene: Homo sapiens galanin receptor 1 (GALR1), mRNA. (on MATRIGEL): 2.507 | mean normalized intensity (log format), gene: Homo sapiens growth hormone 2 (GH2), transcript variant 2, mRNA. (on MATRIGEL): 0.9226 | mean normalized intensity (log format), gene: Homo sapiens hypothetical protein FLJ20075 (FLJ20075), mRNA. (on MATRIGEL): −0.3592 | mean normalized intensity (log format), gene: Homo sapiens mRNA for SCCA2b, complete cds. (on MATRIGEL): 3.329 | mean normalized intensity (log format), gene: Homo sapiens mRNA; cDNA DKFZp586P1124 (from clone DKFZp586P1124) (on MATRIGEL): 0.4856 | mean normalized intensity (log format), gene: Homo sapiens methyl-CpG binding protein MBD2 (MBD2) mRNA, complete cds. (on MATRIGEL): 0.4906 | mean normalized intensity (log format), gene: Homo sapiens tachykinin, precursor 1 (TAC1), transcript variant beta, mRNA. (on MATRIGEL): 2.773 | mean normalized intensity (log format), gene: Homo sapiens testis expressed sequence 14 (TEX14), mRNA. (on MATRIGEL): 3.512 | mean normalized intensity (log format), gene: Homo sapiens, Similar to LIM homeobox protein 8, clone IMAGE: 4839343, mRNA. (on MATRIGEL): −0.06288 | mean normalized intensity (log format), gene: Homo sapiens, Similar to cadherin 6, type 2, K-cadherin (fetal kidney), clone MGC: 1470, mRNA, complete cds. (on MATRIGEL): 2.547 | mean normalized intensity (log format), gene: Homo sapiens, Similar to hypothetical protein FLJ10058, clone MGC: 34305 IMAGE: 5167647, mRNA, complete cds. (on MATRIGEL): 1.698 | mean normalized intensity (log format), gene: Homo sapiens, Similar to hypothetical protein FLJ32001, clone MGC: 39559 IMAGE: 4828136, mRNA, complete cds. (on MATRIGEL): 0.5207 | mean normalized intensity (log format), gene: Homo sapiens, clone IMAGE: 4067166, mRNA (on MATRIGEL): 0.1959 | mean normalized intensity (log format), gene: Homo sapiens, clone IMAGE: 4828836, mRNA. (on MATRIGEL): 0.9729 | mean normalized intensity (log format), gene: Homo sapiens, serine (or cysteine) proteinase inhibitor, clade B (ovalbumin), member 3, clone MGC: 12244, mRNA, complete cds. (on MATRIGEL): 1.969 | mean normalized intensity (log format), gene: Human mRNA upregulated during camptothecin-induced apoptosis of U937 cells. (on MATRIGEL): 0.4945 | mean normalized intensity (log format), gene: Human platelet-derived growth factor alpha-receptor (PDGFRA) mRNA, exons 13-16 (on MATRIGEL): 2.445 | mean normalized intensity (log format), gene: KIAA1151 protein (on MATRIGEL): 0.6425 | mean normalized intensity (log format), gene: caldesmon 1 (on MATRIGEL): 7.092 | mean normalized intensity (log format), gene: nuclear receptor subfamily 1, group I, member 3 (on MATRIGEL): 1.779 | mean normalized intensity (log format), gene: paternally expressed 3 (r2033) (on MATRIGEL): 2.876 | mean normalized intensity (log format), gene: paternally expressed 3 (r2093) (on MATRIGEL): 2.874 | mean normalized intensity (log format), gene: DKFZP566K1924 protein (on MEFS): 1.391 | mean normalized intensity (log format), gene: ESTs (r2006) (on MEFS): −1.3 | mean normalized intensity (log format), gene: ESTs (r2025) (on MEFS): 1.373 | mean normalized intensity (log format), gene: ESTs (r2032) (on MEFS): −1.566 | mean normalized intensity (log format), gene: ESTs (r2038) (on MEFS): 1.5682 | mean normalized intensity (log format), gene: ESTs (r2134) (on MEFS): −0.9461 | mean normalized intensity (log format), gene: ESTs (r2148) (on MEFS): 5.334 | mean normalized intensity (log format), gene: ESTs, Moderately similar to ALU2_HUMAN ALU SUBFAMILY SB SEQUENCE CONTAMINATION WARNING ENTRY (H. sapiens) (on MEFS): 3.874 | mean normalized intensity (log format), gene: H. sapiens mRNA for B-HLH DNA binding protein. (on MEFS): 3.451 | mean normalized intensity (log format), gene: Homo sapiens BCL2-interacting killer (apoptosis-inducing) (BIK), mRNA. (on MEFS): 3.562 | mean normalized intensity (log format), gene: Homo sapiens Charot-Leyden crystal protein (CLC), mRNA. (on MEFS): 2.1096 | mean normalized intensity (log format), gene: Homo sapiens HES-related repressor protein 1 HERP1 mRNA, complete cds. (on MEFS): 2.406 | mean normalized intensity (log format), gene: Homo sapiens HSPC156 protein (HSPC156), mRNA. (on MEFS): 1.296 | mean normalized intensity (log format), gene: Homo sapiens KIAA0469 gene product (KIAA0469), mRNA. (on MEFS): 2.565 | mean normalized intensity (log format), gene: Homo sapiens PNAS-123 mRNA, complete cds (on MEFS): 1.847 | mean normalized intensity (log format), gene: Homo sapiens Wilms tumor 1 (WT1), transcript variant D, mRNA. (on MEFS): −2.435 | mean normalized intensity (log format), gene: Homo sapiens cDNA FLJ11398 fis, clone HEMBA1000637. (on MEFS): 1.849 | mean normalized intensity (log format), gene: Homo sapiens cDNA: FLJ22547 fis, clone HSI00356 (on MEFS): 2.095 | mean normalized intensity (log format), gene: Homo sapiens cadherin 6, type 2, K-cadherin (fetal kidney) (CDH6), mRNA. (on MEFS): −0.8763 | mean normalized intensity (log format), gene: Homo sapiens chorionic somatomammotropin hormone 2 (CSH2), transcript variant 1, mRNA. (on MEFS): 2.616 | mean normalized intensity (log format), gene: Homo sapiens chorionic somatomammotropin hormone 2 (CSH2), transcript variant 4, mRNA. (on MEFS): 2.218 | mean normalized intensity (log format), gene: Homo sapiens galanin receptor 1 (GALR1), mRNA. (on MEFS): −0.338 | mean normalized intensity (log format), gene: Homo sapiens growth hormone 2 (GH2), transcript variant 2, mRNA. (on MEFS): 1.4679 | mean normalized intensity (log format), gene: Homo sapiens hypothetical protein FLJ20075 (FLJ20075), mRNA. (on MEFS): −0.06528 | mean normalized intensity (log format), gene: Homo sapiens mRNA for SCCA2b, complete cds. (on MEFS): 0.568 | mean normalized intensity (log format), gene: Homo sapiens mRNA; cDNA DKFZp586P1124 (from clone DKFZp586P1124) (on MEFS): −3.094
